Measured values published in patent US7405041B2, “Methods for regulating transcription by targeting quadruplex DNA” (Arizona Board of Regents on behalf of the University of …, priority 2002, dated 2008).

Key:
HER-2/neu quadruplex = test: DNA polymerase arrest assay, HER-2/neu promoter template; assay type: biochemical; conditions: temperature gradient of 37° C. to 57° C., in the presence of potassium
Text: (§1) A polymerase arrest assay is useful for determining whether transcription is modulated by a candidate molecule and/or a nucleic acid binding protein. Such an assay includes a template nucleic acid, which often comprises a quadruplex forming sequence, and a primer nucleic acid which hybridizes to the template nucleic acid […] of the quadruplex-forming sequence. The primer is extended by a polymerase (e.g., Taq polymerase), which advances from the primer along the template nucleic acid. In this assay, a quadruplex structure can block or arrest the advance of the enzyme, leading to shorter transcription fragments. Also, the arrest assay may be conducted at a variety of temperatures, including 45° C. and 60° C., and at a variety of ion concentrations. An example of the Taq polymerase stop assay is described in Han, et al., Nucl. Acids Res. 27:537-542 (1999), which is a modification of that used by Weitzmann, et al., J. Biol. Chem. 271, 20958-20964 (1996). Briefly, a reaction mixture of template DNA (50 nM), Tris∘HCl (50 mM), MgCl2 (10 mM), DTT (0.5 mM), EDTA (0.1 mM), BSA (60 ng), and 5′-end-labeled quadruplex nucleic acid (˜18 nM) is heated to 90° C. for 5 minutes and allowed to cool to ambient temperature over 30 minutes. Taq Polymerase (1 μl) is added to the reaction mixture, and the reaction is maintained at a constant temperature for 30 minutes. […]

[1] = system: c-MYB nucleic acid (heptad:tetrad quadruplex); test: DNA polymerase arrest assay, c-MYB nucleic acid; assay type: biochemical; conditions: temperature gradient of 37° C. to 57° C., in the presence of potassium
Text: as §1

B-actin RNA = test: Real-time reverse-transcription PCR gene expression in Colo-205 cells, B-actin; assay type: cell-based; conditions: minimally cytotoxic doses
Method: (§2) Cells were treated with telomestatin (interacts with the putative tetrad:heptad in HER-2/neu) and TmPyP4 (negative control) at various concentrations and times. Cytotoxicity studies using MTS were performed to determine a non-toxic or minimally toxic dose and duration of treatment. Cells were harvested after treatment for RNA extraction, and “target” versus “non-target” gene expression is measured by real-time reverse-transcription PCR according to established methods.
(§3) Target genes included two known tetrad/heptad (T:H) forming genes, HER-2/neu and c-MYB. c-MYC was analyzed as a positive control, having a known chair quadruplex forming regulatory unit in the nuclease hypersensitive element of the P1 promoter. […]
(§4) A panel of cell lines including SK-BR-3 breast cancer, BT-474 breast cancer, MCF-7 breast cancer, Colo-205 colon cancer, and HeLa cervical cancer were treated with the quadruplex interactive compound TmPyP4 to assess for the cytotoxicity of this agent against a panel of cell lines with various levels of expression of HER-2/neu, c-MYB, and c-MYC. At minimally cytotoxic doses, Colo-205 cells were analyzed for gene expression after treatment with TmPyP4 and using real-time reverse-transcription PCR.

c-MYB RNA = test: Real-time reverse-transcription PCR gene expression in Colo-205 cells, c-MYB; assay type: cell-based; conditions: minimally cytotoxic doses
Method: as §2, §3, §4

GAPDH RNA = test: Real-time reverse-transcription PCR gene expression in Colo-205 cells, GAPDH; assay type: cell-based; conditions: minimally cytotoxic doses
Method: as §2, §3, §4

c-MYC RNA = test: Real-time reverse-transcription PCR gene expression in Colo-205 cells, c-MYC; assay type: cell-based; conditions: minimally cytotoxic doses
Method: as §2, §3, §4

HER-2/neu RNA = test: Real-time reverse-transcription PCR gene expression in Colo-205 cells, HER-2/neu; assay type: cell-based; conditions: minimally cytotoxic doses
Method: as §2, §3, §4

quadruplex DNA = conditions: stated as reason for use as negative control; cited from earlier work

| Structure (SMILES) | interaction with and stabilization of the HER-2/neu quadruplex (HER-2/neu quadruplex) | interaction with and stabilization of the c-MYB nucleic acid [1] | B-actin RNA level (B-actin RNA) | c-MYB RNA level (c-MYB RNA) | GAPDH RNA level (GAPDH RNA) | c-MYC RNA level (c-MYC RNA) | HER-2/neu RNA level (HER-2/neu RNA) | interaction with quadruplex DNA (quadruplex DNA) |
| --- | --- | --- | --- | --- | --- | --- | --- | --- |
| C[n+]1ccc(-c2c3nc(c(-c4cc[n+](C)cc4)c4ccc([nH]4)c(-c4cc[n+](C)cc4)c4ccc([nH]4)c(-c4cc[n+](C)cc4)c4nc2C=C4)C=C3)cc1 [TMPyP4] | no apparent change in the stability of the HER-2/neu quadruplex | interacted with and stabilized the c-MYB nucleic acid | not a reduction | reduction | not a reduction | reduction | not a reduction |  |
| C[n+]1ccccc1-c1c2nc(c(-c3cccc[n+]3C)c3ccc([nH]3)c(-c3cccc[n+]3C)c3ccc([nH]3)c(-c3cccc[n+]3C)c3nc1C=C3)C=C2 [TmPyP2] |  |  |  |  |  |  |  | interacts only weakly with quadruplex DNA |
